Patent publication US20090156518A1, “STABLE PHARMACEUTICAL COMPOSITION COMPRISING BETA-LACTAM ANTIBIOTIC AND BUFFER” (priority 2006, published 2009)
Marks after values point to notes of the source that are not given here.

Assay: amounts of β-lactam antibiotic, β-lactamase inhibitor (C18 reverse-phase LC, UV-VIS) and aminoglycoside (HPLC-ELSD) in solution over time
Assay type: physicochemical

CC1(C)[C@H](C(=O)O)N2C(=O)C[C@H]2S1(=O)=O [Sulbactam sodium]
amount of component as percentage with respect to the amount at the initial time (Example 4: cefoperazone sodium 4 g, sulbactam sodium 0.5 g, gentamicin 80 mg, citrate pH 6.75, 200 mL water, room temperature, Time 0 h): 101.4% | amount of component as percentage with respect to the amount at the initial time (Example 4: cefoperazone sodium 4 g, sulbactam sodium 0.5 g, gentamicin 80 mg, citrate pH 6.75, 200 mL water, room temperature, Time 1 h): 101.4% | amount of component as percentage with respect to the amount at the initial time (Example 4: cefoperazone sodium 4 g, sulbactam sodium 0.5 g, gentamicin 80 mg, citrate pH 6.75, 200 mL water, room temperature, Time 2 h): 101.5% | amount of component as percentage with respect to the amount at the initial time (Example 4: cefoperazone sodium 4 g, sulbactam sodium 0.5 g, gentamicin 80 mg, citrate pH 6.75, 200 mL water, room temperature, Time 4 h): 109.7% | amount of component as percentage with respect to the amount at the initial time (Example 4: cefoperazone sodium 4 g, sulbactam sodium 0.5 g, gentamicin 80 mg, citrate pH 6.75, 200 mL water, room temperature, Time 6 h): 103.2% | amount of component as percentage with respect to the amount at the initial time (Example 5: freeze-dried cefoperazone sodium 4 g, sulbactam sodium 0.5 g, citrate pH 6.75, + amikacin sulfate 500 mg, 7 days 0° C., dissolved in 100 mL water, Time 0 h): 101.4% | amount of component as percentage with respect to the amount at the initial time (Example 5: freeze-dried cefoperazone sodium 4 g, sulbactam sodium 0.5 g, citrate pH 6.75, + amikacin sulfate 500 mg, 7 days 0° C., dissolved in 100 mL water, Time 1 h): 101.4% | amount of component as percentage with respect to the amount at the initial time (Example 5: freeze-dried cefoperazone sodium 4 g, sulbactam sodium 0.5 g, citrate pH 6.75, + amikacin sulfate 500 mg, 7 days 0° C., dissolved in 100 mL water, Time 2 h): 101.5% | amount of component as percentage with respect to the amount at the initial time (Example 5: freeze-dried cefoperazone sodium 4 g, sulbactam sodium 0.5 g, citrate pH 6.75, + amikacin sulfate 500 mg, 7 days 0° C., dissolved in 100 mL water, Time 4 h): 109.7% | amount of component as percentage with respect to the amount at the initial time (Example 5: freeze-dried cefoperazone sodium 4 g, sulbactam sodium 0.5 g, citrate pH 6.75, + amikacin sulfate 500 mg, 7 days 0° C., dissolved in 100 mL water, Time 6 h): 103.2% | amount of component as percentage with respect to the amount at the initial time (Example 6: freeze-dried cefoperazone sodium 4 g, sulbactam sodium 1 g, citrate pH 6.75, + etimicin sulfate 200 mg, 7 days 0° C., dissolved in 100 mL water, Time 0 h): 99.62% | amount of component as percentage with respect to the amount at the initial time (Example 6: freeze-dried cefoperazone sodium 4 g, sulbactam sodium 1 g, citrate pH 6.75, + etimicin sulfate 200 mg, 7 days 0° C., dissolved in 100 mL water, Time 1 h): 100.4% | amount of component as percentage with respect to the amount at the initial time (Example 6: freeze-dried cefoperazone sodium 4 g, sulbactam sodium 1 g, citrate pH 6.75, + etimicin sulfate 200 mg, 7 days 0° C., dissolved in 100 mL water, Time 2 h): 100.2% | amount of component as percentage with respect to the amount at the initial time (Example 6: freeze-dried cefoperazone sodium 4 g, sulbactam sodium 1 g, citrate pH 6.75, + etimicin sulfate 200 mg, 7 days 0° C., dissolved in 100 mL water, Time 4 h): 100.2% | amount of component as percentage with respect to the amount at the initial time (Example 7: ceftriaxone sodium 4 g, sulbactam sodium 1 g, gentamicin sulfate 80 mg, citrate pH 6.75, 200 mL water, room temperature (22° C.), Time 0 h): 96.84% | amount of component as percentage with respect to the amount at the initial time (Example 7: ceftriaxone sodium 4 g, sulbactam sodium 1 g, gentamicin sulfate 80 mg, citrate pH 6.75, 200 mL water, room temperature (22° C.), Time 1 h): 94.43% | amount of component as percentage with respect to the amount at the initial time (Example 7: ceftriaxone sodium 4 g, sulbactam sodium 1 g, gentamicin sulfate 80 mg, citrate pH 6.75, 200 mL water, room temperature (22° C.), Time 2 h): 93.35% | amount of component as percentage with respect to the amount at the initial time (Example 7: ceftriaxone sodium 4 g, sulbactam sodium 1 g, gentamicin sulfate 80 mg, citrate pH 6.75, 200 mL water, room temperature (22° C.), Time 4 h): 93.23% | amount of component as percentage with respect to the amount at the initial time (Example 7: ceftriaxone sodium 4 g, sulbactam sodium 1 g, gentamicin sulfate 80 mg, citrate pH 6.75, 200 mL water, room temperature (22° C.), Time 6 h): 92.13% | amount of component as percentage with respect to the amount at the initial time (Example 7: ceftriaxone sodium 4 g, sulbactam sodium 1 g, gentamicin sulfate 80 mg, citrate pH 6.75, 200 mL water, room temperature (22° C.), Time 8 h): 93.38% | amount of component as percentage with respect to the amount at the initial time (Example 10: mezlocillin sodium 2 g, sulbactam sodium 0.5 g, etimicin sulfate 200 mg, citrate pH 6.5, 200 mL water, room temperature, Time 0 h): 98.07% | amount of component as percentage with respect to the amount at the initial time (Example 10: mezlocillin sodium 2 g, sulbactam sodium 0.5 g, etimicin sulfate 200 mg, citrate pH 6.5, 200 mL water, room temperature, Time 1 h): 98.13% | amount of component as percentage with respect to the amount at the initial time (Example 10: mezlocillin sodium 2 g, sulbactam sodium 0.5 g, etimicin sulfate 200 mg, citrate pH 6.5, 200 mL water, room temperature, Time 2 h): 72.96% | amount of component as percentage with respect to the amount at the initial time (Example 10: mezlocillin sodium 2 g, sulbactam sodium 0.5 g, etimicin sulfate 200 mg, citrate pH 6.5, 200 mL water, room temperature, Time 4 h): 95.16% | amount of component as percentage with respect to the amount at the initial time (Example 10: mezlocillin sodium 2 g, sulbactam sodium 0.5 g, etimicin sulfate 200 mg, citrate pH 6.5, 200 mL water, room temperature, Time 6 h): 99.65% | amount of component as percentage with respect to the amount at the initial time (Example 10: mezlocillin sodium 2 g, sulbactam sodium 0.5 g, etimicin sulfate 200 mg, citrate pH 6.5, 200 mL water, room temperature, Time 8 h): 104.9% | amount of component as percentage with respect to the amount at the initial time (Example 11: freeze-dried mezlocillin sodium, sulbactam sodium, citrate pH 6.5, 7 days 0° C., in 100 mL 5% fructose + etimicin sulfate 200 mg, Time 0 h): 114.3% | amount of component as percentage with respect to the amount at the initial time (Example 11: freeze-dried mezlocillin sodium, sulbactam sodium, citrate pH 6.5, 7 days 0° C., in 100 mL 5% fructose + etimicin sulfate 200 mg, Time 1 h): 95.83% | amount of component as percentage with respect to the amount at the initial time (Example 11: freeze-dried mezlocillin sodium, sulbactam sodium, citrate pH 6.5, 7 days 0° C., in 100 mL 5% fructose + etimicin sulfate 200 mg, Time 2 h): 93.75% | amount of component as percentage with respect to the amount at the initial time (Example 11: freeze-dried mezlocillin sodium, sulbactam sodium, citrate pH 6.5, 7 days 0° C., in 100 mL 5% fructose + etimicin sulfate 200 mg, Time 4 h): 93.78% | amount of component as percentage with respect to the amount at the initial time (Example 11: freeze-dried mezlocillin sodium, sulbactam sodium, citrate pH 6.5, 7 days 0° C., in 100 mL 5% fructose + etimicin sulfate 200 mg, Time 6 h): 95.65% | amount of component as percentage with respect to the amount at the initial time (Example 11: freeze-dried mezlocillin sodium, sulbactam sodium, citrate pH 6.5, 7 days 0° C., in 100 mL 5% fructose + etimicin sulfate 200 mg, Time 8 h): 101.0% | amount of component as percentage with respect to the amount at the initial time (Example 14: freeze-dried cefoperazone sodium 4 g, sulbactam sodium 2 g, citrate pH 6.75, 7 days 0° C., in 100 mL water, 10 mL + gentamicin sulfate 16 mg, room temperature, Time 0 h): 92.44% | amount of component as percentage with respect to the amount at the initial time (Example 14: freeze-dried cefoperazone sodium 4 g, sulbactam sodium 2 g, citrate pH 6.75, 7 days 0° C., in 100 mL water, 10 mL + gentamicin sulfate 16 mg, room temperature, Time 1 h): 91.27% | amount of component as percentage with respect to the amount at the initial time (Example 14: freeze-dried cefoperazone sodium 4 g, sulbactam sodium 2 g, citrate pH 6.75, 7 days 0° C., in 100 mL water, 10 mL + gentamicin sulfate 16 mg, room temperature, Time 2 h): 90.78% | amount of component as percentage with respect to the amount at the initial time (Example 14: freeze-dried cefoperazone sodium 4 g, sulbactam sodium 2 g, citrate pH 6.75, 7 days 0° C., in 100 mL water, 10 mL + gentamicin sulfate 16 mg, room temperature, Time 4 h): 88.38* % | amount of component as percentage with respect to the amount at the initial time (Example 14: freeze-dried cefoperazone sodium 4 g, sulbactam sodium 2 g, citrate pH 6.75, 7 days 0° C., in 100 mL water, 10 mL + gentamicin sulfate 16 mg, room temperature, Time 6 h): 86.86* % | amount of component as percentage with respect to the amount at the initial time (Example 15: freeze-dried cefoperazone sodium 4 g, sulbactam sodium 4 g, citrate pH 6.75, 7 days 0° C., in 100 mL water, 10 mL + gentamicin sulfate 16 mg, room temperature, Time 0 h): 99.50% | amount of component as percentage with respect to the amount at the initial time (Example 15: freeze-dried cefoperazone sodium 4 g, sulbactam sodium 4 g, citrate pH 6.75, 7 days 0° C., in 100 mL water, 10 mL + gentamicin sulfate 16 mg, room temperature, Time 1 h): 96.28% | amount of component as percentage with respect to the amount at the initial time (Example 15: freeze-dried cefoperazone sodium 4 g, sulbactam sodium 4 g, citrate pH 6.75, 7 days 0° C., in 100 mL water, 10 mL + gentamicin sulfate 16 mg, room temperature, Time 2 h): 102.5% | amount of component as percentage with respect to the amount at the initial time (Example 15: freeze-dried cefoperazone sodium 4 g, sulbactam sodium 4 g, citrate pH 6.75, 7 days 0° C., in 100 mL water, 10 mL + gentamicin sulfate 16 mg, room temperature, Time 4 h): 95.78* % | amount of component as percentage with respect to the amount at the initial time (Example 15: freeze-dried cefoperazone sodium 4 g, sulbactam sodium 4 g, citrate pH 6.75, 7 days 0° C., in 100 mL water, 10 mL + gentamicin sulfate 16 mg, room temperature, Time 6 h): 70.74* % | amount of component as percentage with respect to the amount at the initial time (Example 17: freeze-dried cefoperazone sodium 4 g, sulbactam sodium 1 g, citrate pH 6.75, 7 days 0° C., in 100 mL water, 10 mL + amikacin sulfate 40 mg, room temperature, Time 0 h): 105.6% | amount of component as percentage with respect to the amount at the initial time (Example 17: freeze-dried cefoperazone sodium 4 g, sulbactam sodium 1 g, citrate pH 6.75, 7 days 0° C., in 100 mL water, 10 mL + amikacin sulfate 40 mg, room temperature, Time 1 h): 112.2% | amount of component as percentage with respect to the amount at the initial time (Example 17: freeze-dried cefoperazone sodium 4 g, sulbactam sodium 1 g, citrate pH 6.75, 7 days 0° C., in 100 mL water, 10 mL + amikacin sulfate 40 mg, room temperature, Time 2 h): 112.6% | amount of component as percentage with respect to the amount at the initial time (Example 17: freeze-dried cefoperazone sodium 4 g, sulbactam sodium 1 g, citrate pH 6.75, 7 days 0° C., in 100 mL water, 10 mL + amikacin sulfate 40 mg, room temperature, Time 4 h): 118.5% | amount of component as percentage with respect to the amount at the initial time (Example 17: freeze-dried cefoperazone sodium 4 g, sulbactam sodium 1 g, citrate pH 6.75, 7 days 0° C., in 100 mL water, 10 mL + amikacin sulfate 40 mg, room temperature, Time 6 h): 123.3% | amount of component as percentage with respect to the amount at the initial time (Example 17: freeze-dried cefoperazone sodium 4 g, sulbactam sodium 1 g, citrate pH 6.75, 7 days 0° C., in 100 mL water, 10 mL + amikacin sulfate 40 mg, room temperature, Time 8 h): 127.1% | amount of component as percentage with respect to the amount at the initial time (Example 19: ceftriaxone sodium 2 g, sulbactam sodium 2 g, gentamicin sulfate 160 mg, citrate pH 6.75, 200 mL water, room temperature, Time 0 h): 96.84% | amount of component as percentage with respect to the amount at the initial time (Example 19: ceftriaxone sodium 2 g, sulbactam sodium 2 g, gentamicin sulfate 160 mg, citrate pH 6.75, 200 mL water, room temperature, Time 1 h): 94.43% | amount of component as percentage with respect to the amount at the initial time (Example 19: ceftriaxone sodium 2 g, sulbactam sodium 2 g, gentamicin sulfate 160 mg, citrate pH 6.75, 200 mL water, room temperature, Time 2 h): 93.35% | amount of component as percentage with respect to the amount at the initial time (Example 19: ceftriaxone sodium 2 g, sulbactam sodium 2 g, gentamicin sulfate 160 mg, citrate pH 6.75, 200 mL water, room temperature, Time 4 h): 93.23% | amount of component as percentage with respect to the amount at the initial time (Example 19: ceftriaxone sodium 2 g, sulbactam sodium 2 g, gentamicin sulfate 160 mg, citrate pH 6.75, 200 mL water, room temperature, Time 6 h): 92.13% | amount of component as percentage with respect to the amount at the initial time (Example 19: ceftriaxone sodium 2 g, sulbactam sodium 2 g, gentamicin sulfate 160 mg, citrate pH 6.75, 200 mL water, room temperature, Time 8 h): 93.38%
